Experiments:
rabbit eye mucosa = test: Irritation experiment on rabbit eye mucosa; type: in vivo, rabbit (Japanese White); details: for irritation on the rabbit eye mucosa (Kay and Calandra classification): 100 mg powder
Experimental: Male rabbits at the age of 10 weeks (Japanese White, Kb1:JW(SPF)) were prepared for a washed group (n=3) and a non-washed group (n=3). After pre-bred for 7 days, the rabbits were confirmed normality about changes of body weight and health condition. On the preceding day, they were confirmed about normality of eyes macroscopically and no injury of cornea by fluoresceine staining (fluor-paper, Lot No. 3990849 available from Wyeth-Ayerest Laboratories, USA) using slitlamp (type SL-5: available from Kowa Company, Ltd.) to prepare for experiment.
100 mg of iron phthalocyanine tetracarboxylic acid powder, which was screened through a mesh having 300 μm of aperture once, was put into right conjunctiva of each rabbit, and upper and lower eyelids were gently kept closed for about one second. In the washed group, to remove powder, the conjunctiva was washed with 230-330 mL of lukewarm water at 30 seconds after putting to remove the powder. The left conjunctiva of each rabbit wasn't treated in both groups. The cornea, iris and the conjunctiva in both groups were compared with non-treated eye as reference at 1, 24, 48 and 72 hours after putting. […] The observation results were scored following Draize scoring criteria (Appendix 3), and the irritation was evaluated following Kay and Calandra classification (Appendix 4).

rats = test: Toxicity experiment by oral injection of solution dissolving the decomposer to rats (for once)
Experimental: They were divided into each group according to their body weights measured before housed by a continuous stratified sampling method. Extra rats caused by the method were excluded from the experiment and euthanized.
Following the medical toxicity test guideline, the amount of injection was determined 2000 mg/kg, technical upper limit of oral injection. A comparative group, which a comparative material of purified water in the Japanese Pharmacopoeia was injected, was also prepared. 10 male rats and 10 female rats were divided into two groups respectively.
Their health conditions and life or death were observed continuously before the injection of the solution, at 5, 15, 30 minutes, 1, 2, and 4 hours after the injection, and once a day as from the following day. They were weighed before the injection of the solution, and at 9:00-12:00 on 1, 3, 7, 10, 14th day after the injection. After all the observations, their organs and tissues in heads, chests and abdomens were researched whether normal or not.

guinea pig skin [1] = details: sensitized with 0.1% DNCB, induced by 0.1% DNCB, 48 hours after inducing
[2] = test system: fibroblasts derived from Chinese hamster lung (CHL/IU cell); test: Experiment on chromosome aberration by using mammalian cells; type: cell-based; details: positive comparative group, short time
Experimental: The experiment on chromosome aberration was examined as follows. The experiment doses of the test material were determined by the inhibition experiment of increasing cells. As a result of the inhibition experiment of increasing cells, the concentration of test material in 50% inhibition experiment of increasing cells was 5.0 mg/mL or more in −S9mix method treating in a short time. And the concentration thereof was 0.840 mg/mL in +S9mix method treating in a short time.
As the negative comparative, the non-treating group and the comparative group of the medium were prepared, and as the positive comparative, the mitomycin C (0.05 μg/mL)-treating group was prepared.
Under this experiment, colcemid (available from GIBCO/Lot No. 1125546) was added to laboratory dishes for chromosome specimens to the last concentration of 0.2 μg/mL at 2 hours before making specimens so that cell divisions were stopped in the middle of the division period. After 2 hours, the culture solutions in the laboratory dishes were moved into a conical bottom tube. […] Furthermore, the laboratory dishes prepared for the cell increasing rate were fixed and stained in the same method as the inhibition experiment of increasing cells described above, and the cell increasing rate was measured. […]

guinea pig skin [3] = test: Sensitization experiment with rays in guinea pig skin (Adjuvant and Strip method); type: in vivo, guinea pig (Crj; Hartley); details: sensitized with 5% 6-MC
Experimental: The procedures were repeated for 5 days and the guinea pigs were sensitized with rays.
In the comparative group of the medium, the guinea pigs were injected with to sensitize and induced by dimethylsulfoxide. […] As the positive comparative group, the guinea pigs were injected with 5% 6-methylcoumarin (6-MC) to sensitize, and induced by 1% 6-MC.

Tick antigen Derf II = target: T1, Tick antigen Derf II (Dermatophagoides farinae, UniProt Q00855); test: Two-dimensional electrophoresis of tick allergen with and without Fe-Pc-COOK; type: biochemical; details: Derf II sol. with 0.1 or 0.5 w/v % Fe-Pc-COOK (A) vs tick allergen only (B), silver stain
T1 construct: purchased ASAHI BREWERIES, LTD
T1 sequence (Q00855 18-146): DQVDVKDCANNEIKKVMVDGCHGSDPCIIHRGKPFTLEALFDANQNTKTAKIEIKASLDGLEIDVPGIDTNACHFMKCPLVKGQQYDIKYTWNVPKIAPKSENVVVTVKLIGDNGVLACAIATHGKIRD
Source text: Tick antigen Derf II (available from ASAHI BREWERIES, LTD.) was chosen between the allergens, and we compared electrophoresis of the tick allergen containing iron phthalocyanine tetracarboxylic acid with that of the allergen only.
Iron phthalocyanine tetracarboxylic acid potassium salt (Fe-Pc-COOK) aqueous solution and Derf II solution, which appropriate concentrations (w/v %) were mentioned in Table 4, were mixed with swelling stock solution containing IPG (Immobilized pH Gradient) buffer (8 mol/L Urea, 2 w/v % CHAPS, 2% IPG Buffer, appropriate amount of Bromophenol blue, and distilled water) to prepare experimental solutions of preparing examples 1-4 in Table 4.
Whereas Derf II solution was mixed with swelling stock solution containing IPG buffer to prepare experimental solutions of comparative preparing examples 1-4 in Table 4.
One-dimensional electrophoresis gel films (Strip) of Strip pH4-7 and Strip pH 3-10.5 were prepared, soaked in each experimental solution containing appropriate amount of silicon oil for preventing dry, and treated for 10 hours. After being pulled up and washed, each Strip was subjected to one-dimensional electrophoresis containing silicon oil for preventing dry for 16 hours. […]

guinea pig skin [4] = test: Toxicity experiment with rays in guinea pig (Morikawa et al. method); type: in vivo, guinea pig (Crj; Hartley); details: 0.03 mL of 0.05% 8-methoxypsoralen, UV, all spread parts
Experimental: In the comparative group of the medium, the clipped backs of the guinea pigs were open spread by 0.03 mL of dimethylsulfoxide.
As the positive comparative group, the clipped backs of the guinea pigs were open spread by 0.03 mL of 0.05% 8-methoxypsoralen. After 30 minutes, they were exposed to ultraviolet rays (about 11.2 Joules/cm^2). The reactions on the skins were evaluated at 24 and 48 hours after exposing to rays.

iron phthalocyanine tetracarboxylic acid
irritation on the rabbit eye mucosa (Kay and Calandra classification) (rabbit eye mucosa; non-washed group): moderately irritating | irritation on the rabbit eye mucosa (Kay and Calandra classification) (rabbit eye mucosa; washed group (washed 30 seconds after putting)): practically nonirritating | time by which reaction of the conjunctiva disappeared (rabbit eye mucosa; non-washed group): ≤ 10 days | time by which reactions of the cornea and the iris disappeared (rabbit eye mucosa; non-washed group, after putting): ≤ 72 h | time by which slight red conjunctiva disappeared (rabbit eye mucosa; washed group, after putting): ≤ 24 h | death during the experiment (rats; 2000 mg/kg oral once, observed 14 days): no male and female rat | minimum lethal dose (rats; oral once, male and female rats): ≥ 2000 mg/kg

O=[N+]([O-])c1ccc(Cl)c([N+](=O)[O-])c1 [DNCB, 2,4-dinitrochlorobenzene]
positive rate (guinea pig skin [1]): 100%

CN(C)N=O [DMN]
appearance frequency of cells whose chromosomes were abnormal structurally ([2]; +S9mix method): 37.5%

CO[C@@]12[C@H](COC(N)=O)C3=C(C(=O)C(C)=C(N)C3=O)N1C[C@@H]1N[C@@H]12 [MMC, mitomycin C]
appearance frequency of cells whose chromosomes were abnormal structurally ([2]; -S9mix method): 16%

Cc1ccc2oc(=O)ccc2c1 [Example 6-MC, 6-methylcoumarin]
erythema score (guinea pig skin [3]; induced by 1% 6-MC and exposed to ultraviolet rays): 2-4 | evaluation of sensitization with rays (guinea pig skin [3]; induced by 1% 6-MC, all guinea pigs): positive

Iron phthalocyanine tetracarboxylic acid potassium salt
effect on tick allergen spots in two-dimensional electrophoresis gel (Tick antigen Derf II): Disappearance of the spots between pH 5-6

COc1c2occc2cc2ccc(=O)oc12 [8-methoxypsoralen]
skin action score (guinea pig skin [4]): 4

— patent publication US20090291934A1, “Method for decomposing an allergen” (Shinshu TLO Co., Ltd., priority 2003, published 2009)
